In ChEMBL document CHEMBL1142982, “Discovery of N-(4-(3-amino-1H-indazol-4-yl)phenyl)-N'-(2-fluoro-5-methylphenyl)urea (ABT-869), a 3-aminoindazole-based orally active multitargeted receptor tyrosine kinase inhibitor” (J Med Chem, 2007):
≈ marks a conversion by molar mass, not a printed value. Values belong to the compound of their own block, whether it stands above or below them.

Assays:
[1] = AUC in CD1 mouse at 10 mg/kg, po; assay type: ADME, organism-based; set-up: dose 10 mg/kg, route oral; conditions: plasma
[2] = Oral bioavailability in CD1 mouse; assay type: ADME, organism-based; conditions: in vivo
[3] = Oral bioavailability n Sprague-Dawley rat at 5 mg/kg, po; assay type: ADME, organism-based; conditions: in vivo
[4] = Aqueous solubility at pH 7 at room temperature; assay type: physicochemical; conditions: buffer
[5] = Volume of distribution in cynomolgus monkey at […], iv; assay type: ADME, organism-based, Macaca fascicularis; set-up: dose 2.5 mg/kg, route intravenous; conditions: in vivo, read-out: Vdss
[6] = Half life in Sprague-Dawley rat at 5 mg/kg, iv; assay type: ADME, organism-based; set-up: dose 5 mg/kg, route intravenous; conditions: in vivo
[7] = AUC in Sprague-Dawley rat at 5 mg/kg, po; assay type: ADME, organism-based; set-up: dose 5 mg/kg, route oral; conditions: plasma
[8] = AUC in Beagle dog at […], po; assay type: ADME, organism-based, Canis lupus familiaris; set-up: dose 2.5 mg/kg, route oral; conditions: plasma
[9] = AUC in cynomolgus monkey at […], po; assay type: ADME, organism-based, Macaca fascicularis; set-up: dose 2.5 mg/kg, route oral; conditions: plasma
[10] = Oral bioavailability in cynomolgus monkey at […], po; assay type: ADME, organism-based, Macaca fascicularis; conditions: in vivo
[11] = Lipophilicity, log D at pH 7.4; assay type: physicochemical; conditions: buffer
[12] = Clearance in Sprague-Dawley rat at 5 mg/kg, iv; conditions: in vivo
[13] = Half life in Beagle dog at […], iv; assay type: ADME, organism-based, Canis lupus familiaris; set-up: dose 2.5 mg/kg, route intravenous; conditions: in vivo
[14] = Oral bioavailability in Beagle dog at […], po; assay type: ADME, organism-based, Canis lupus familiaris; conditions: in vivo
[15] = Clearance in cynomolgus monkey at […], iv; assay type: ADME, organism-based, Macaca fascicularis; set-up: dose 2.5 mg/kg, route intravenous; conditions: in vivo
[16] = Half life in cynomolgus monkey at […], iv; assay type: ADME, organism-based, Macaca fascicularis; set-up: dose 2.5 mg/kg, route intravenous; conditions: in vivo
[17] = Stability in human hepatocyte assessed as metabolic turnover after 6 hrs; assay type: ADME, cell-based; conditions: hepatocytes, read-out: Stability
[18] = Stability in monkey hepatocyte assessed as metabolic turnover after 6 hrs; assay type: ADME, cell-based, Macaca mulatta; conditions: rhesus monkey, hepatocytes
[19] = Volume of distribution in Sprague-Dawley rat at 5 mg/kg, iv; assay type: ADME, organism-based; set-up: dose 5 mg/kg, route intravenous; conditions: in vivo, read-out: Vdss
[20] = Volume of distribution in Beagle dog at […]; assay type: ADME, organism-based, Canis lupus familiaris; set-up: dose 2.5 mg/kg; conditions: in vivo, read-out: Vdss
[21] = Stability in mouse hepatocyte assessed as metabolic turnover after 6 hrs; assay type: ADME, cell-based; conditions: hepatocytes
[22] = Stability in dog hepatocyte assessed as metabolic turnover after 6 hrs; assay type: ADME, cell-based, Canis lupus familiaris; conditions: hepatocytes
[23] = Clearance in Beagle dog at […], iv; assay type: ADME, organism-based, Canis lupus familiaris; set-up: dose 2.5 mg/kg, route intravenous; conditions: in vivo

SMILES: Cc1cccc(NC(=O)Nc2ccc(-c3cccc4[nH]nc(N)c34)cc2)c1
- AUC [1]: 6.5 µM·h
- bioavailability [2]: 38%

SMILES: Cc1cccc(NC(=O)Nc2ccc(-c3cccc4c3c(N)nn4C)cc2)c1
- AUC [1]: 19.8 µM·h
- bioavailability [2]: 89%

SMILES: Cc1cc(NC(=O)Nc2ccc(-c3cccc4[nH]nc(N)c34)cc2)ccc1F
- AUC [1]: 10.9 µM·h
- bioavailability [2]: 66%

Second part, the compound after the results:

- AUC [1]: 1 µM·h
- bioavailability [2]: 20%
SMILES: Cc1cccc(NC(=O)Nc2ccc(-c3ccc(OCCN4CCOCC4)c4[nH]nc(N)c34)cc2)c1

- AUC [1]: 15 µM·h
- bioavailability [2]: 50%
SMILES: Nc1n[nH]c2cccc(-c3ccc(NC(=O)Nc4cccc(Cl)c4)cc3)c12

- bioavailability [3]: 27%
- Solubility [4]: 0.027 µg/mL (≈ 0.0719 µM)
- Vd [5]: 2.2 L/kg
- half-life [6]: 3.6 h
- AUC [7]: 6800 ng·h/mL
- AUC [8]: 1500 ng·h/mL
- AUC [1]: 24.5 µM·h
- AUC [9]: 600 ng·h/mL
- bioavailability [10]: 10.6%
- logD [11]: 4.2
- clearance [12]: 3.3 mL/min/kg
- half-life [13]: 2 h
- bioavailability [14]: 47%
- clearance [15]: 8.2 mL/min/kg
- half-life [16]: 3.1 h
- metabolised at 6 h [17]: 91%
- parent remaining at 6 h [18]: 91%
- bioavailability [2]: 100%
- Vd [19]: 1.1 L/kg
- Vd [20]: 1.2 L/kg
- parent remaining at 6 h [21]: 91%
- parent remaining at 6 h [22]: 91%
- clearance [23]: 7.2 mL/min/kg
SMILES: Cc1ccc(F)c(NC(=O)Nc2ccc(-c3cccc4[nH]nc(N)c34)cc2)c1 [LINIFANIB]
